This is an account of results in US12440492B2, “Pharmaceutical compositions comprising AKT protein kinase inhibitors” (Genentech, Inc., priority 2016, dated 2025).

Molecules are shown by their SMILES. Structures can show the parent of a compound that is named as a salt.

What all share (format): physicochemical
The nature of data set [1]: Solid state by X-ray powder diffraction. The following applies: * indicates absence of crystalline API; monohydrochloride.
Data set [2] in a line: Particle size distribution (d10, d50, d90) by laser diffraction.
Data set [3] is described as follows: Glass transition. The following applies: monohydrochloride.
A short description of data set [4]: Mechanical deformation behaviour (brittleness). The conditions noted are these: more brittle than lactose. An excerpt: Mechanical compression during tableting of conventional pharmaceutical compositions comprising ipatasertib leads to exhausted compressibility, followed by elastic recovery of the tablet upon decompression. Therefore conventional pharmaceutical compositions comprising ipatasertib monohydrochloride are not suitable for direct compression due to lamination problems (crack formation during decompression) which are detectable as small cracks and fractures of the tablet core (e.g. using X-ray microtomography). Industrially required high-speed tableting processes may not be achievable.

A short description of data set [5]: Solubility of ipatasertib. The text has this: (§1) Whereas poor solubility is often a limiting factor in the development of galenical formulations of other API's (active pharmaceutical ingredient), a high solubility can equally be problematic for the process performance. Due to this very high intrinsic hygroscopicity of the API, ipatasertib drug substance tends to auto-dissolve to a honey-like viscous liquid at increased humidity. Such high solubility and hygroscopicity may pose serious problems for processing as well as for stability and shelf-life of the final product. Therefore, conventional pharmaceutical compositions comprising ipatasertib and processes for the manufacture of pharmaceutical compositions comprising wetting (e.g. wet granulation) are difficult due to the high solubility and high hygroscopicity of the API.

The nature of data set [6]: Hygroscopicity of ipatasertib.
Description: as §1

The mark [7] stands for this setting: spray dried amorphous ipatasertib monohydrochloride powder.

As for `CC(C)NC[C@@H](C(=O)N1CCN(c2ncnc3c2[C@H](C)C[C@H]3O)CC1)c1ccc(Cl)cc1` [Example 6C, ipatasertib monohydrochloride], the “Solid state / Polymorphy (X-Ray, XRPD)” value in data set [1] was “amorphous”. Besides, the “particle size distribution shape” value in data set [2] (laser diffraction, monohydrochloride) was “bimodal”. Besides, in data set [2] (setting [7]), the “Particle size d10” value came to 0.7 μm and the “Particle size d50” value stood at 4.3 μm. For the same compound, the “Glass Transition tg” value in data set [3] was found to be 131 °C.

Take `CC(C)NC[C@@H](C(=O)N1CCN(c2ncnc3c2[C@H](C)C[C@H]3O)CC1)c1ccc(Cl)cc1` [ipatasertib monohydrochloride, (S)-2-(4-chlorophenyl)-1-(4-((5R,7R)-7-hydroxy-5-methyl-6,7-dihydro-5H-cyclopenta[d]pyrimidin-4-yl)piperazin-1-yl)-3-(isopropylamino)propan-1-one as monohydrochloride salt]: in data set [4], the “brittle deformation characteristics relative to lactose” value is 3 ×.

Consider `CC(C)NC[C@@H](C(=O)N1CCN(c2ncnc3c2[C@H](C)C[C@H]3O)CC1)c1ccc(Cl)cc1` [ipatasertib, (S)-2-(4-chlorophenyl)-1-(4-((5R,7R)-7-hydroxy-5-methyl-6,7-dihydro-5H-cyclopenta[d]pyrimidin-4-yl)piperazin-1-yl)-3-(isopropylamino)propan-1-one], for which the solubility in data set [5] (water) is over 1 g/g; in data set [5] (water/ethanol 1:1), over 2 g/g. Also, the figures for the hygroscopicity in data set [6] (at 50% RH) and in data set [6] (at 95% RH) were about 6% and over 35%, respectively.
